Measurements as given in US20180282279A1, “Pantothenamide Analogues” (Radboud Universitair Medisch Centrum, priority 2014, published 2018).
Values after ≈ are worked out from the molar mass of the structure shown. Like-named read-outs stand apart in the source and are kept apart here.

Columns and labels:
[1] = tested on: S. aureus (SA), S. epidermidis (SE), S. pyogenes (SP), S. pneumoniae (SPn); test: MIC for most sensitive bacterial species (panel); format: cell-based; settings: Table 1, no species named, read-out: MIC (μg/ml) for most sensitive bacterial species
Procedure: (§1) Strains of Escherichia coli, Staphylococcus aureus and Staphylococcus epidermidis, were grown overnight in 1% Bacto tryptone medium (BD, Sparks, Md.). Streptococcus pyogenes was grown overnight in Bacto Todd Hewitt Broth medium (BD, Sparks, Md.). Cultures were then diluted 1:1,000 in fresh assay medium supplemented with or without 20% fetal bovine serum (FBS; HyClone, Celbio, Logan, Utah) and added to 96-well sterile enzyme-linked immunosorbent assay (ELISA) plates (100 μl per well). The compounds to be tested were diluted in the medium without serum and added to the bacteria (100 μl per well). Plates were incubated at 37° C., and bacterial growth was monitored over time by reading the optical density at 490 nm using a microplate reader (model 450; Bio-Rad Laboratories Inc., Hercules, Calif.). Streptococcus pneumoniae strains were grown to mid-log phase (OD620 of 0.3) and stored in 15% glycerol at […] till further use. Minimal inhibitory concentration (MIC) of antibiotics was determined according to standard procedures. Bacteria were diluted 10-fold in Mueller-Hinton medium (BD, Sparks, Md.) and added to 96-well sterile ELISA plates (150 μl per well). The compounds to be tested were diluted in the medium without serum and added to the bacteria (150 μl per well). Plates were incubated overnight at 37° C. in 5% CO2. The MIC was defined as the lowest concentration of compound at which no growth was visible with the naked eye.

[2] = tested on: Plasmodium falciparum NF54 parasites; test: P. falciparum asexual blood stage replication assay (SYBR Green); format: cell-based; settings: NF54, 10% human serum, 72 incubation
Procedure: Compounds were tested on their ability to inhibit replication of the human malaria parasite Plasmodium falciparum. To this end, Plasmodium falciparum NF54 parasites were cultured in RPMI1640 medium supplemented with 367 μM hypoxanthine, 25 mM HEPES, 25 mM sodiumbicarbonate and 10% human type A serum in an automated large-scale culture system as described before (Transactions of the Royal Society of Tropical Medicine and Hygiene, 1982. 76: p. 812-818). Compounds were diluted in DMSO and subsequently in culture medium to reach a DMSO concentration of 0.2%. 50 μl of diluted compound was transferred to a black 96 well plate. A culture of P. falciparum strain NF54 malaria parasites was diluted to a parasitaemia of 0.5% and a hematocrit of 3%. 50 μl of this diluted culture was added to each well in the 96 well plate._The outermost wells of the plate were filled with sterile water to prevent evaporation. The established antimalarial dihydroartemisinin (DHA) in DMSO acted as a positive control (MIN signal), and 0.1% DMSO acted as a negative control (MAX signal). The plates were incubated for 72 at 37° C., 3% 02, 5% CO2, 93% N2. Changes in parasite replication relative to the controls were monitored using the DNA-marker SYBR Green as described previously (Antimicrob Agents Chemother 48:1803-6). Data were analyzed by logistic regression using the formula: Y=Bottom+(Top-Bottom)/(1+10̂((Log IC50−X)*HillSlope)) and a least squares method to find the best fit.
Using similar methods, IC50 values were determined for a variety of inverted pantothenamides, as listed in table 1 (see section: ‘Detailed description of the invention’)

Streptococcus pyogenes = test: Bacterial growth assay and MIC determination, S. pyogenes; format: cell-based; settings: Streptococcus pyogenes; Table 1; most sensitive species S. pyogenes (SP); read-out: MIC (μg/ml) for most sensitive bacterial species
Procedure: as §1

[3] = tested on: Staphylococcus epidermidis; test: Bacterial growth assay and MIC determination, S. epidermidis; format: cell-based; settings: Staphylococcus epidermidis; Table 1; most sensitive species S. epidermidis (SE); read-out: MIC (μg/ml) for most sensitive bacterial species
Procedure: as §1

[4] = tested on: P. falciparum gametocytes; test: Gametocyte female gametogenesis capacity assay (Pfs25 AlphaLISA); format: cell-based; settings: Plasmodium falciparum; 72 hours incubation, Table 3; read-out: Gametocyte gametogenesis capacity (Pfs25) IC50
Procedure: To monitor compound effects on the ability of a gametocyte to form a female gamete, day 11 (stage IV) gametocytes were seeded at a density of 4×10^5 gametocytes per well in a V-bottom plate in 50 μl culture medium. 50 μl of diluted compound was added to the gametocytes (0.1% DMSO final concentration) and plates were incubated for 72 hours at 37° C., 98% humidity, 93% N2, 4% CO2 and 3% O2. Subsequently, gametogenesis was induced by adding xanthurenic acid to a final concentration of 40 μM and plates were incubated for 16 hours at 20° C. Gametes were detected in a homogeneous proximity immunoassay on basis of Pfs25 expression by use of AlphaLISA technology (Perkin Elmer). All steps were performed at 20° C. Gametes were washed twice with PBS, lysed for 15 min in 10 μl 10 mM Tris pH 8.0/1% laurylsarcosyl/1 mM phenylmethanesulfonyl fluoride and combined with 10 μl 5 nM biotinylated mouse anti-Pfs25 monoclonal antibody 32F6244 in a white 384 well optiplate (Perkin Elmer). After 1 hour incubation 15 μl of 33 μg/ml acceptorbeads coated with mouse anti-Pfs25 monoclonal antibody 32F81 were added. After 1 hour incubation, 15 μl 33 μg/ml Streptavidin-conjugated donorbeads were added. Finally, after 1 hour incubation luminescence signals were monitored at the 615 nm emission wavelength following excitation at 680 nm using a fluorometer (Biotek Synergy 2). All compounds were tested in duplicate (24 hr) or triplicate (1 and 72 hr). Controls included MIN (0.1 μM epoxomicin) and MAX (0.1% DMSO). Data were analyzed by logistic regression using the formula: Y=Bottom+(Top−Bottom)/(1+10̂((Log IC50−X)*HillSlope)) and a least squares method to find the best fit.

[5] = tested on: P. falciparum gametocytes; test: microbe, parasite or virus in culture; format: cell-based, Plasmodium falciparum; settings: Plasmodium falciparum; 72 hour incubation; read-out: Gametocyte viability (pLDH) IC50
Procedure: Compounds were tested for their ability to affect the viability of gametocytes, the sexually committed blood stages of P. falciparum that underlie transmission to the mosquito vector. To this end, two different assays were performed. The first assay monitored pLDH activity as a measure of viability of gametocytes (J Antimicrob Chemother. 2013 September; 68(9):2048-58). The second assay monitored the ability of gametocytes to form a female gamete by detection of the gamete-specific marker Pfs25. Plasmodium falciparum NF54 parasites were cultured in RPMI1640 medium supplemented with 367 μM hypoxanthine, 25 mM HEPES, 25 mM sodiumbicarbonate and 10% human type A serum in an automated large-scale culture system as described before (Transactions of the Royal Society of Tropical Medicine and Hygiene, 1982. 76: p. 812-818). Cultures were treated with 50 mM N-acetyl-D-glucosamine from day 4 till day 9 to kill asexual parasites. On day 11 gametocytes were isolated by discontinuous 63% Percoll gradient centrifugation. Compounds were diluted in DMSO and subsequently in culture medium to reach a DMSO concentration of 0.2%. To measure the effect of compounds of pLDH activity, gametocytes were seeded at a density of 3.5×10^4 gametocytes per well in a black 384 well plate in 30 μl of culture medium, and 30 μl of diluted compound was added. Following a 72 hour incubation at 37° C., 98% humidity, 93% N2, 4% CO2 and 3% O2, gametocyte viability was measured by a modified plasmodium lactate dehydrogenase assay by using resazurin as a substrate as previously described (Nature, 2013. 504(7479): p. 248-53). Assays were performed in quadruplicate (two different plates with two different gametocyte batches) and all plates included controls MIN (1 μM DHA), MAX (0.1% DMSO) and a serial dilution of reference compound dihydroartemisinin (DHA).

Staphylococcus aureus = test: Bacterial growth assay and MIC determination, S. aureus; format: cell-based; settings: Staphylococcus aureus, Table 1; most sensitive species S. aureus (SA); read-out: MIC (μg/ml) for most sensitive bacterial species
Procedure: as §1

Row | MIC ([1]; tested for SA, SE, SP and SPn) [µg/mL] | IC50 [2] [µM] | MIC [3] [µg/mL] | Structure (SMILES) | also measured
1 | > 32 | 7.5 | – | CC(C)(CO)[C@@H](O)C(=O)NCCCNC(=O)CCc1ccccc1 [CXP18.6-010] | –
2 | – | 0.1 | – | CC(C)(CO)[C@@H](O)C(=O)NCCNC(=O)CCc1cccc(F)c1 [CXP18.6-018] | MIC (Streptococcus pyogenes): 16 µg/mL (≈ 47 µM)
3 | – | 0.42 | 32 (≈ 94 µM) | CC(C)(CO)[C@@H](O)C(=O)NCCNC(=O)CCc1ccc(F)cc1 [CXP18.6-019] | –
4 | > 32 | 1 | – | COc1ccc(CCC(=O)NCCNC(=O)[C@H](O)C(C)(C)CO)cc1 [CXP18.6-022] | –
5 | > 32 | 0.58 | – | CC(C)(CO)[C@@H](O)C(=O)NCCNC(=O)CCc1ccccc1Cl [CXP18.6-027] | –
6 | > 32 | 0.19 | – | CC(C)(CO)[C@@H](O)C(=O)NCCNC(=O)CCc1ccc(Cl)cc1 [CXP18.6-028] | –
7 | – | 6.4 | 32 (≈ 82 µM) | CC(C)(CO)[C@@H](O)C(=O)NCCNC(=O)CCc1ccccc1C(F)(F)F [CXP18.6-038] | –
8 | > 32 | 0.21 | – | CC(C)(CO)[C@@H](O)C(=O)NCCNC(=O)CCc1ccc(C(F)(F)F)cc1 [CXP18.6-042] | –
9 | > 32 | 0.15 | – | CC(C)(C)c1ccc(CCC(=O)NCCNC(=O)[C@H](O)C(C)(C)CO)cc1 [CXP18.6-043] | –
10 | – | 0.057 | – | CC(C)(CO)[C@@H](O)C(=O)NCCNC(=O)CCc1ccsc1 [CXP18.6-046] | MIC (Streptococcus pyogenes): 32 µg/mL (≈ 97.4 µM); IC50 [4]: 0.401 µM; IC50 [5]: > 10 µM
11 | – | 0.1 | – | CC(C)(CO)[C@@H](O)C(=O)NCCNC(=O)CCc1cccs1 [CXP18.6-047] | MIC (Streptococcus pyogenes): 8 µg/mL (≈ 24.4 µM); IC50 [4]: 0.168 µM; IC50 [5]: > 10 µM
12 | – | 2.2 | 16 (≈ 49.9 µM) | CC(C)(CO)[C@@H](O)C(=O)NCCNC(=O)/C=C/c1ccccc1 [CXP18.6-048] | –
13 | – | 1.6 | 32 (≈ 99 µM) | CC(C)(CO)[C@@H](O)C(=O)NCCNC(=O)CCc1ccccn1 [CXP18.6-055] | –
14 | – | 0.47 | – | CC(C)(CO)[C@@H](O)C(=O)NCCNC(=O)CCc1ccncc1 [CXP18.6-056] | MIC ([1]; Streptococcus pneumoniae, marked *: not tested for S. pneumoniae): > 32 µg/mL
15 | – | 0.4 | 16 (≈ 51.2 µM) | CC(C)(CO)[C@@H](O)C(=O)NCCNC(=O)CCc1ccco1 [CXP18.6-057] | MIC (Staphylococcus aureus): 16 µg/mL (≈ 51.2 µM)
16 | – | 0.11 | 4 (≈ 11.2 µM) | CC(C)(CO)[C@@H](O)C(=O)NCCNC(=O)CCc1ccc(F)cc1F [CXP18.6-069] | –
17 | > 32 | 0.004 | – | C[C@@H](CNC(=O)[C@H](O)C(C)(C)CO)NC(=O)CCc1ccccc1F [MMV689258] | –
18 | > 32 | 0.21 | – | C[C@H](CNC(=O)[C@H](O)C(C)(C)CO)NC(=O)CCc1ccccc1F [MMV689260] | –
